In patent US20230192661A1, “1, 4, 5, 6-TETRAHYDROPYRIMIDINE-2-AMINE DERIVATIVE” (UBE Corporation, priority 2020, published 2023) one finds IC50 data, which are given here for 15 compounds.

The target of one test is T1, αvβ1 (UniProt G3HZ55+P06756).
T1 construct: expressed in transfected cells; host or cells: CHO cells deficient in α5 gene, transfected with αv gene
Nature of the test: αvβ1 cell adhesion inhibition test (αv-transfected CHO cells on human fibronectin). Type of test: cell-based. The note with it: human fibronectin coating, 1 mM MnCl2, 1 hour, read-out: IC50 (rate of inhibition of cell adhesion, αvβ1). On the procedure:
Test Example 1 was performed by partially modifying the method of Reed et al. (Sci Transl Med., 7 (288), 288ra79, 2015).
Human fibronectin (manufactured by Sigma-Aldrich Co. LLC, F0895) was prepared at 1.25 μg/mL with phosphate buffered saline (PBS), dispensed at 100 μL/well to a 96-well plate, and left standing overnight. The plate was washed with Hanks' balanced salt solution (HBSS), then subjected to blocking treatment with Dulbecco's modified Eagle medium (DMEM) containing 1% bovine serum-derived albumin (BSA) (FUJIFILM Wako Pure Chemical Corp., for cell culture, 017-22231), and used as a coated plate in the adhesion test.
αv-transfected cells (CHO cells deficient in α5 gene and transfected with αv gene) cultured in Ham's F-12 medium (FUJIFILM Wako Pure Chemical Corp., 087-08335) containing 10% fetal bovine serum (FBS), 1% penicillin/streptomycin/amphotericin B (manufactured by Thermo Fisher Scientific, Inc., 15240), 1 mM GlutaMAX Supplement (manufactured by Thermo Fisher Scientific, Inc., 35050), and 400 μg/mL hygromycin B (FUJIFILM Wako Pure Chemical Corp., 080-07683) were recovered and suspended in DMEM containing 1 mM MnCl2 (manufactured by Sigma-Aldrich Co. LLC, M1787) to prepare a cell suspension. A test compound dissolved in DMSO was added thereto.
The cell suspension of 1×10^6 cells/mL containing the test compound was added at 100 μL/well to the coated plate and left standing for 1 hour in a 5% CO2 incubator (37° C.). One hour later, the supernatant was removed, and the plate was washed with HBSS. The cells that adhered to each well in the plate were stained with crystal violet, and the cells were lysed, followed by absorbance measurement. Inhibition without substrate coating was defined as 100% inhibition, and inhibition when DMSO was added instead of the test compound was defined as 0% inhibition. The rate of inhibition of cell adhesion by the test compound was calculated according to the following expression.
Rate of inhibition of cell adhesion (%)=[1−{(Absorbance in the case of adding the test compound)−(Absorbance without substrate coating)}/{(Absorbance in the case of adding DMSO)−(Absorbance without substrate coating)}]×100
An IC50 value was calculated from the rate of inhibition of cell adhesion by the test compound. A: IC50<3 nM, B: 3 nM≤IC50<10 nM, C: 10 nM≤IC50<30 nM, D: 30 nM≤IC50<100 nM, or E: IC50≥100 nM.

Test [1] concerns Human hepatic stellate cells. Description: Active human hepatic stellate cell dedifferentiation test (decrease in ACTA2 mRNA expression). The note with it: 3 days differentiation then 2 days with compound, read-out: IC50 (rate of decrease in ACTA2 mRNA expression). The class given is cell-based. How it is done: Human hepatic stellate cells (manufactured by ScienCell Research Laboratories, Inc., 5300) were suspended in DMEM containing 10% FBS and […] penicillin/streptomycin/amphotericin B to prepare a cell suspension of 0.5×10^5 cells/mL, which was regarded as cells at the start of differentiation. The cells at the start of differentiation were dispensed at 1 mL/well to a 12-well plate and cultured, for differentiation, for 3 days in a 5% CO2 incubator (37° C.).
The culture solution in each well was removed, and DMEM containing 10% FBS and 1% penicillin/streptomycin/amphotericin B supplemented with a test compound dissolved in DMSO (final DMSO concentration: 0.1%) was added at 1 mL/well. The resultant was further cultured for 2 days in a 5% CO2 incubator (37° C.). In Test Example 4, the same reagents as in Test Example 1 were used unless otherwise specified.
RNA in the cultured cells was extracted using NucleoSpin® RNA (manufactured by Takara Bio Inc., U0955C), and cDNA was further synthesized from the extracted RNA using Prime Script™ RT reagent Kit with gDNA Eraser (manufactured by Takara Bio Inc., RR047A). Real time PCR was performed using the synthesized cDNA, various primers and TB Green® Premix Ex Taq™ II (manufactured by Takara Bio Inc., RR820A) and using PCR Thermal Cycler Dice Real Time (manufactured by Takara Bio Inc., System Code TP910, Model Code TP900). The primers used were actin alpha 2, smooth muscle (ACTA2) primer (manufactured by Takara Bio Inc., HA136273) and glyceraldehyde-3-phosphate dehydrogenase (GAPDH) primer (manufactured by Takara Bio Inc., HA067812).
The amplification curve of PCR was analyzed by the comparative Ct method. The expression level of ACTA2 mRNA was corrected with the expression level of GAPDH mRNA. An ACTA2 mRNA expression level when DMSO was added instead of the test compound was defined as 100%, and an ACTA2 mRNA expression level in the cells at the start of differentiation was defined as 0%. The rate of decrease in ACTA2 mRNA expression by the test compound was calculated according to the following expression.
Rate of decrease in ACTA2 mRNA expression (%)=[1−{(ACTA2 mRNA expression level in the case of adding the test compound)−(ACTA2 mRNA expression level in the cells at the start of differentiation)}/{(ACTA2 mRNA expression level in the case of adding DMSO)−(ACTA2 mRNA expression level in the cells at the start of differentiation)}]×100
An IC50 value was calculated from the rate of decrease in ACTA2 mRNA expression by the test compound. A: IC50<10 nM, B: 10 nM≤IC50<50 nM, C: 50 nM≤IC50<100 nM, or D: IC50≥100 nM.

T1 sequence (P06756 31-889 limits assumed): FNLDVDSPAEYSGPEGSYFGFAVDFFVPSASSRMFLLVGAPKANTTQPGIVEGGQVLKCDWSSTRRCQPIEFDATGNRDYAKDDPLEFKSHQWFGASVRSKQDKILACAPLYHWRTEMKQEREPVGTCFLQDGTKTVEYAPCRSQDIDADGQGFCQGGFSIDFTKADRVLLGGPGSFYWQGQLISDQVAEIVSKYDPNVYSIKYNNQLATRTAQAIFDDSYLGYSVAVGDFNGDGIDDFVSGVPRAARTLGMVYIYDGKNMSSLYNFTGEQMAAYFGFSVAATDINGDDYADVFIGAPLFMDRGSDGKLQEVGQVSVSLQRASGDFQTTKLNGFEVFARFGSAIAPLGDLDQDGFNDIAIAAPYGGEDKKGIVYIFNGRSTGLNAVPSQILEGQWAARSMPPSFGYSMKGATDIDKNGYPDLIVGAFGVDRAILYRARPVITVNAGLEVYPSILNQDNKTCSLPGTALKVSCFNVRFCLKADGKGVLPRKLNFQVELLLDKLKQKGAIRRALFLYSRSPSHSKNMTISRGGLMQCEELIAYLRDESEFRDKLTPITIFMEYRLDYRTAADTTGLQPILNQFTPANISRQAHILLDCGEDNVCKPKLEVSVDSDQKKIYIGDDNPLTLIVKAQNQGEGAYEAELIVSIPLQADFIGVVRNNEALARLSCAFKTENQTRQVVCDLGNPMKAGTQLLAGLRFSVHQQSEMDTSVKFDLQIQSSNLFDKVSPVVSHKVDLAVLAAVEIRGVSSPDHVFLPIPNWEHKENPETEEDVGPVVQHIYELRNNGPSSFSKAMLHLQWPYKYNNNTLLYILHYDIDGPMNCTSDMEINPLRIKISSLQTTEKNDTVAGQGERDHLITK
T1 sequence (P06756 891-1048 limits assumed): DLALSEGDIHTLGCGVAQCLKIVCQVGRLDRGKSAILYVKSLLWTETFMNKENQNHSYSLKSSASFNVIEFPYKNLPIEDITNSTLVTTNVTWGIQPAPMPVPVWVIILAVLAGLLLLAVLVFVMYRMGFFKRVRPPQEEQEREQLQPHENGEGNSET
T1 sequence (G3HZ55 21-798): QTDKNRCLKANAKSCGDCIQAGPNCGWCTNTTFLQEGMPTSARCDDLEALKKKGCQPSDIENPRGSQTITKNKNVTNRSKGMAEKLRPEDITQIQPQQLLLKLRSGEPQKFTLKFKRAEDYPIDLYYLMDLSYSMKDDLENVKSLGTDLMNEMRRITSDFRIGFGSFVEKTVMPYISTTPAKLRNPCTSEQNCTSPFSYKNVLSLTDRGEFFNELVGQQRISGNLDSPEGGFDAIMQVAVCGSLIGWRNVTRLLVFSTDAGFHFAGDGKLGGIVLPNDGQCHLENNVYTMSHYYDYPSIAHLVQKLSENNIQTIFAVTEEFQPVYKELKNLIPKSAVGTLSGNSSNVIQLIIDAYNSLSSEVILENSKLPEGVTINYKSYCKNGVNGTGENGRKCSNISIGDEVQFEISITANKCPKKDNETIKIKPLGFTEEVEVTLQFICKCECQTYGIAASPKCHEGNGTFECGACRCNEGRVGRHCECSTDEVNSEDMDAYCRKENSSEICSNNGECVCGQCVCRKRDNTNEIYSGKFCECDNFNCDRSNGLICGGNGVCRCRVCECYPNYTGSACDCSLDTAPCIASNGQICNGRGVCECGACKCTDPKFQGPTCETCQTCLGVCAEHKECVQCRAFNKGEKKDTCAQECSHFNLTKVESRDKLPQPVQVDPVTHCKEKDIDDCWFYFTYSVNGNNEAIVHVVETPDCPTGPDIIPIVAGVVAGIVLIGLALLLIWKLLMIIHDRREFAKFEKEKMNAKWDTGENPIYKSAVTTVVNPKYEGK

Usually IC50 stands for the concentration needed to halve the response being measured. Consider `O=C(O)C[C@H](NC(=O)CNC(=O)c1cc(NC2=NCC(F)CN2)c2cn[nH]c2c1)c1ccc(C(F)(F)F)cc1` (stereo partly drawn) [Example 47-(b), (3S)-3-(2-(4-((5-fluoro-1,4,5,6-tetrahydropyrimidin-2-yl)amino)-1H-indazole-6-carboxamido)acetamido)-3-(4-(trifluoromethyl)phenyl)propanoic acid], for which, at αvβ1, the IC50 lay in the range of 3 to 10 nM.
As to `O=C(O)C[C@H](NC(=O)CNC(=O)c1cc(NC2=NCC(F)CN2)c2cn[nH]c2c1)c1cccc(Cl)c1` (stereo partly drawn) [Example 41-(b), (3S)-3-(3-chlorophenyl)-3-(2-(4-((5-fluoro-1,4,5,6-tetrahydropyrimidin-2-yl)amino)-1H-indazole-6-carboxamido)acetamido)propanoic acid], the half-inhibitory concentration (IC50) lay in the range of 3 to 10 nM at αvβ1 and 10 to 50 nM in test [1].
For `Cc1cc([C@H](CC(=O)O)NC(=O)CNC(=O)c2cc(NC3=NCC(F)CN3)c3cn[nH]c3c2)cc(C(F)(F)F)c1` (stereo partly drawn) [Example 4-(b), (3S)-3-(2-(4-((5-fluoro-1,4,5,6-tetrahydropyrimidin-2-yl)amino)-1H-indazole-6-carboxamido)acetamido)-3-(3-methyl-5-(trifluoromethyl)phenyl)propanoic acid] the same measures were 3 to 10 nM and 10 to 50 nM.
In the same order, the values of `O=C(O)C[C@H](NC(=O)CNC(=O)c1cc(NC2=NCC(F)CN2)c2cn[nH]c2c1)c1cccc(OC(F)(F)F)c1` (stereo partly drawn) [Example 36-(b), (3S)-3-(2-(4-((5-fluoro-1,4,5,6-tetrahydropyrimidin-2-yl)amino)-1H-indazole-6-carboxamido)acetamido)-3-(3-(trifluoromethoxy)phenyl)propanoic acid] are 3 to 10 nM and 10 to 50 nM.
`Cc1cc(C)n(-c2cccc([C@H](CC(=O)O)NC(=O)CNC(=O)c3cc(NC4=NCC(F)CN4)c4cn[nH]c4c3)c2)n1` (stereo partly drawn) [Example 44-(b), (3S)-3-(3-(3,5-dimethyl-1H-pyrazol-1-yl)phenyl)-3-(2-(4-((5-fluoro-1,4,5,6-tetrahydropyrimidin-2-yl)amino)-1H-indazole-6-carboxamido)acetamido)propanoic acid]: the IC50 on αvβ1 is less than 3 nM.
On to `O=C(O)C[C@H](NC(=O)CNC(=O)c1cc(NC2=NCC(F)CN2)c2cn[nH]c2c1)c1cccc(C2CC2)c1` (stereo partly drawn) [Example 39-(b), (3S)-3-(3-cyclopropylphenyl)-3-(2-(4-((5-fluoro-1,4,5,6-tetrahydropyrimidin-2-yl)amino)-1H-indazole-6-carboxamido)acetamido)propanoic acid], for which the values for the IC50 (on αvβ1; in test [1]) were less than 3 nM and less than 10 nM, respectively.
As for `O=C(O)C[C@H](NC(=O)CNC(=O)c1cc(NC2=NCC(F)CN2)c2cn[nH]c2c1)c1cc(C(F)(F)F)ccc1Cl` (stereo partly drawn) [Example 12-(b), (3S)-3-(2-chloro-5-(trifluoromethyl)phenyl)-3-(2-(4-((5-fluoro-1,4,5,6-tetrahydropyrimidin-2-yl)amino)-1H-indazole-6-carboxamido)acetamido)propanoic acid], the IC50 fell in the range of 3 to 10 nM on αvβ1 and 10 to 50 nM in test [1].
For `O=C(O)C[C@H](NC(=O)CNC(=O)c1cc(NC2=NCC(F)CN2)c2cn[nH]c2c1)c1cc(OC(F)F)cc(-n2cccn2)c1` (stereo partly drawn) [Example 29-(b), (3S)-3-(3-(difluoromethoxy)-5-(1H-pyrazol-1-yl)phenyl)-3-(2-(4-((5-fluoro-1,4,5,6-tetrahydropyrimidin-2-yl)amino)-1H-indazole-6-carboxamido)acetamido)propanoic acid], the half-maximal inhibitory concentration (IC50) at αvβ1 was less than 3 nM.
For the compound `O=C(O)C[C@H](NC(=O)CNC(=O)c1cc(NC2=NCCCN2)c2cn[nH]c2c1)c1cc(Cl)cc(C(F)(F)F)c1` [Example 51-(b), (S)-3-(3-chloro-5-(trifluoromethyl)phenyl)-3-(2-(4-((1,4,5,6-tetrahydropyrimidin-2-yl)amino)-1H-indazole-6-carboxamido)acetamido)propanoic acid], the IC50 on αvβ1 lay in the range of 30 to 100 nM.
`O=C(O)C[C@H](NC(=O)CNC(=O)c1cc(NC2=NCC(F)CN2)c2cn[nH]c2c1)c1ccc(OC(F)F)cc1` (stereo partly drawn) [Example 46-(b), (3S)-3-(4-(difluoromethoxy)phenyl)-3-(2-(4-((5-fluoro-1,4,5,6-tetrahydropyrimidin-2-yl)amino)-1H-indazole-6-carboxamido)acetamido)propanoic acid]: the IC50 on αvβ1 was 3 to 10 nM.
As for `O=C(O)C[C@H](NC(=O)CNC(=O)c1cc(NC2=NCC(O)CN2)c2cn[nH]c2c1)c1cc(Cl)cc(C(F)(F)F)c1` (stereo partly drawn) [Example 50-(b), (3S)-3-(3-chloro-5-(trifluoromethyl)phenyl)-3-(2-(4-((5-hydroxy-1,4,5,6-tetrahydropyrimidin-2-yl)amino)-1H-indazole-6-carboxamido)acetamido)propanoic acid], at αvβ1, the IC50 fell in the range of 10 to 30 nM.
Turning to `O=C(O)C[C@H](NC(=O)CNC(=O)c1cc(NC2=NCC(F)CN2)c2cn[nH]c2c1)c1ccc(F)c(OC(F)F)c1` (stereo partly drawn) [Example 27-(b), (3S)-3-(3-(difluoromethoxy)-4-fluorophenyl)-3-(2-(4-((5-fluoro-1,4,5,6-tetrahydropyrimidin-2-yl)amino)-1H-indazole-6-carboxamido)acetamido)propanoic acid], the IC50 at αvβ1 is less than 3 nM.
Same read-out and setting: with `O=C(O)C[C@H](NC(=O)CNC(=O)c1cc(NC2=NCC(F)CN2)c2cn[nH]c2c1)c1cccc(N2CCOCC2)c1` (stereo partly drawn) [Example 45-(b), (3S)-3-(2-(4-((5-fluoro-1,4,5,6-tetrahydropyrimidin-2-yl)amino)-1H-indazole-6-carboxamido)acetamido)-3-(3-morpholinophenyl)propanoic acid] the figure was less than 3 nM; with `O=C(O)C[C@H](NC(=O)CNC(=O)c1cc(NC2=NCC(F)CN2)c2cn[nH]c2c1)c1cc(Br)ccc1F` (stereo partly drawn) [Example 23-(b), (3S)-3-(5-bromo-2-fluorophenyl)-3-(2-(4-((5-fluoro-1,4,5,6-tetrahydropyrimidin-2-yl)amino)-1H-indazole-6-carboxamido)acetamido)propanoic acid], less than 3 nM.
As for `O=C(O)C[C@H](NC(=O)CNC(=O)c1cc(NC2=NCC(F)CN2)c2cn[nH]c2c1)c1cc(Cl)ccc1F` (stereo partly drawn) [Example 22-(b), (3S)-3-(5-chloro-2-fluorophenyl)-3-(2-(4-((5-fluoro-1,4,5,6-tetrahydropyrimidin-2-yl)amino)-1H-indazole-6-carboxamido)acetamido)propanoic acid], at αvβ1, the IC50 lay in the range of 10 to 30 nM.
